Experimental findings from patent US5212326A, “Sodium hydrogen divalproate oligomer” (Abbott Laboratories, priority 1991, dated 1993) are described below.

Holding throughout (assay type): in vivo
In data set [1] the test system is Pentylenetetrazole seizures. Description: Anticonvulsant activity, pentylenetetrazole seizures in mice (oral ED50). The following applies: based on equimolar valproic acid equivalents. The source says: (§1) In a comparison of anticonvulsant activities of
(§2) the oral ED50 based on equimolar valproic acid equivalents are established by standard procedures.

For data set [2], the system named is Pentylenetetrazole seizures. Description: Anticonvulsant activity, pentylenetetrazole seizures in rats (oral ED50). The conditions noted are these: Rattus norvegicus, based on equimolar valproic acid equivalents.
Source text: as §1, §2

A short description of data set [3]: Bioavailability study, blood plasma levels in mouse. The conditions noted are these: po, 200 mg/kg, equimolar doses, 30 minutes after administration, read-out: peak blood plasma levels. As to the method: (§3) In a bioavailability study carried out with (A) and (C) above in various animal species, the peak blood plasma levels of oral, equimolar doses are determined according to standard procedures, 30 minutes after drug administration.

Data set [4] can be described thus: Bioavailability study, blood plasma levels in rat. The following applies: po, 200 mg/kg, equimolar doses, 30 minutes after administration, read-out: peak blood plasma levels. As to the method: as §3
Data set [5] can be described thus: Bioavailability study, blood plasma levels and AUC in dog. The following applies: po, 25 mg/kg, equimolar doses. As for the experimental part:
as §3
*Area under the curve value for 0-7 hours.

The ED50 is the dose that gives a 50% effect, or the effect in half of the subjects. The AUC is the area under the concentration-time curve, a measure of exposure.

Bounds are passed on as bounds.

Turning to `CCCC(CCC)C(=O)[O-].[Na+]` [B, sodium valproate], the ED50 in data set [1] (Mus musculus, po) is 282 mg/kg; in data set [2], 415 mg/kg.
For `CCCC(CCC)C(=O)O` [A, 2-propylpentanoic acid], in data set [1], the “oral ED50, Pentylenetetrazole seizures (mice)” value is listed as below 800 mg/kg. In addition, the ED50 in data set [2] turned out to be 355 mg/kg. In addition, the Cmax at 0.5 h in data set [3] is 134000 ng/g; in data set [4], 84100 ng/g; in data set [5] (30 minutes after administration, read-out: peak blood plasma levels), 65200 ng/g. Moreover, the AUC at 7 h in data set [5] (0-7 hours, read-out: AUC (Area under the curve value for 0-7 hours)) stood at 82300 ng·h/mL.
